TGI data for 15 compounds are collected here from PubChem BioAssay (NCI).

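Assay format: 96-well plates, 48-hour exposure. TGI: concentration producing complete growth inhibition.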 Bounds are passed on as bounds.

Some test systems named below: CCRF-CEM leukemia; MDA-MB-435; NCI-H460 lung; NCI-H522 lung; OVCAR-4 ovarian; SF-268 CNS; SK-MEL-2 melanoma; SK-OV-3 ovarian; SNB-19 CNS; 786-0 renal.
Test in all cases: NCI tumour cell line growth inhibition, 48 h

In the case of `COc1ccc(N2CN(C)CSC2=S)cc1`, the TGI in the test with CCRF-CEM leukemia is 87.2 µM; with MDA-MB-435, above 100 µM; in the test with NCI-H460 lung, above 100 µM; in the test with NCI-H522 lung it was above 100 µM; in the test on OVCAR-4 ovarian it was above 100 µM; in the test with SF-268 CNS, above 100 µM. Also, the results for the TGI in the test with SK-MEL-2 melanoma, with SK-OV-3 ovarian and in the test with SNB-19 CNS were above 100 µM, 66.8 µM and above 100 µM, respectively.
On to `Cc1ccc2n(c1)cc(-c1ccc(/C=N/NC(=N)N/N=C/c3ccc(-c4cn5cc(C)ccc5[n+]4C)cc3)cc1)[n+]2C`, for which the TGI with 786-0 renal, in the test with CCRF-CEM leukemia, in the test on MDA-MB-435, in the test on NCI-H460 lung, in the test on NCI-H522 lung and in the test on OVCAR-4 ovarian was above 100 µM each time. For the same compound, the TGI is 43.8 µM with SF-268 CNS, above 100 µM in the test on SK-OV-3 ovarian and above 100 µM with SNB-19 CNS.
Regarding `C/C(=N\NC(=O)CC#N)C(CN1CCCCC1)C(c1ccccc1)c1c(O)c2ccccc2oc1=O` (configuration not stated), the TGI in the test with 786-0 renal is above 100 µM; with CCRF-CEM leukemia, 73.5 µM; in the test with MDA-MB-435, above 100 µM; with NCI-H522 lung, above 100 µM; with OVCAR-4 ovarian, above 100 µM; with SF-268 CNS, above 100 µM. Also, the TGI with SK-MEL-2 melanoma, with SK-OV-3 ovarian and in the test on SNB-19 CNS was above 100 µM throughout.
Take `CCCCCCCCCC(O)CC(=O)c1c(O)cccc1O` (configuration not stated): the TGI with 786-0 renal is 50.4 µM; in the test on CCRF-CEM leukemia it was above 100 µM; in the test with MDA-MB-435, 68.1 µM; in the test on NCI-H522 lung, 37.9 µM; in the test on OVCAR-4 ovarian it was 35.2 µM; in the test on SF-268 CNS it was 35.9 µM. The TGI in the test with SK-MEL-2 melanoma was 35.7 µM; in the test on SK-OV-3 ovarian, 41.3 µM; in the test on SNB-19 CNS it was 73 µM.
On to `CNC(=O)c1cc2nc3ccccc3c(=O)n2c2ccccc12`, for which the TGI in the test with 786-0 renal, in the test on CCRF-CEM leukemia, in the test on MDA-MB-435, with NCI-H522 lung, in the test with OVCAR-4 ovarian and in the test on SF-268 CNS was above 10 µM each time. Besides, the TGI in the test with SK-MEL-2 melanoma, in the test with SK-OV-3 ovarian and in the test with SNB-19 CNS was above 10 µM each time.
With `CC(C(=O)NCCNC(=O)CCC(=O)N(C)O)C(=O)NCCNC(=O)CCC(=O)N(C)O`, the TGI in the test on CCRF-CEM leukemia, in the test on MDA-MB-435, in the test with NCI-H460 lung, with NCI-H522 lung, in the test on OVCAR-4 ovarian and with SF-268 CNS was above 100 µM throughout. The TGI in the test on SK-MEL-2 melanoma, in the test with SK-OV-3 ovarian and with SNB-19 CNS was above 100 µM in each case.
Regarding `Cn1c(=O)c2c(nc3n2CCC(=O)N3CCCCl)n(C)c1=O`, the TGI with 786-0 renal, in the test with CCRF-CEM leukemia, with MDA-MB-435, with NCI-H460 lung, with OVCAR-4 ovarian and in the test on SF-268 CNS was above 100 µM throughout. Besides, the TGI in the test on SK-MEL-2 melanoma, in the test with SK-OV-3 ovarian and in the test with SNB-19 CNS was above 100 µM throughout.
On to `CCOC(=O)CCC(NC(=O)c1ccc(Nc2nc3cc(C(F)(F)F)ccc3nc2C(=O)OCC)cc1)C(=O)OCC` (configuration not stated), for which the TGI was 5.5 µM in the test on 786-0 renal; above 100 µM in the test with CCRF-CEM leukemia; 21.9 µM in the test on MDA-MB-435; 33.9 µM in the test on NCI-H460 lung; 42.2 µM in the test with NCI-H522 lung; 28.6 µM in the test on SF-268 CNS. The TGI in the test on SK-MEL-2 melanoma was 28.8 µM; in the test with SNB-19 CNS it was 22.6 µM.
Take `CC(=O)NNC(=S)/N=C\c1c(O)c2ccccc2oc1=O`: the TGI in the test on 786-0 renal, with CCRF-CEM leukemia, in the test on MDA-MB-435, in the test on NCI-H460 lung, in the test with NCI-H522 lung and with OVCAR-4 ovarian was above 100 µM throughout. In addition, the TGI in the test with SF-268 CNS, in the test on SK-MEL-2 melanoma and in the test on SNB-19 CNS was above 100 µM in each case.
For `Oc1cc(Cl)cc2cc(Cl)cnc12`, the TGI in the test with 786-0 renal was above 100 µM; with CCRF-CEM leukemia, 6.37 µM; in the test with MDA-MB-435, above 100 µM; in the test on NCI-H460 lung it was 14 µM; with NCI-H522 lung it was 24.3 µM; in the test on OVCAR-4 ovarian, above 100 µM. Also, the TGI with SF-268 CNS, in the test on SK-OV-3 ovarian and in the test on SNB-19 CNS was above 100 µM in each case.
For the compound `C=C1C(=O)[C@]23C[C@H]1C[C@@H](O)[C@H]2[C@]1(COC3=O)[C@@H](OC(C)=O)CC[C@@](C)(COC(C)=O)[C@H]1C=O`, the TGI was above 50 µM in the test with 786-0 renal; 15.1 µM in the test with CCRF-CEM leukemia; above 50 µM in the test with MDA-MB-435; above 50 µM in the test on NCI-H460 lung; 14.6 µM in the test with NCI-H522 lung; above 50 µM in the test with OVCAR-4 ovarian. For the same compound, the TGI in the test on SF-268 CNS is 43.5 µM; in the test with SK-MEL-2 melanoma it was above 50 µM; in the test with SNB-19 CNS, above 50 µM.
For `O=C1CCCCC/C1=C\c1cccc([N+](=O)[O-])c1`, the TGI in the test on 786-0 renal is above 100 µM; with CCRF-CEM leukemia, 44.2 µM; in the test on MDA-MB-435, above 100 µM; in the test on NCI-H460 lung, 67.9 µM; with SF-268 CNS, 40.6 µM; in the test on SK-MEL-2 melanoma, above 100 µM. For the same compound, the TGI in the test on SK-OV-3 ovarian and in the test on SNB-19 CNS was above 100 µM throughout.
`COc1ccc(C(=O)c2c(-c3ccccc3NC(=O)C(F)(F)F)[nH]c3ccccc23)cc1`: the TGI in the test with CCRF-CEM leukemia amounted to 15.2 µM; in the test with MDA-MB-435, 25.5 µM; in the test on NCI-H460 lung it was 16.4 µM; in the test on NCI-H522 lung it was 22.8 µM; in the test with OVCAR-4 ovarian, 19.2 µM; with SF-268 CNS it was 28.7 µM. Besides, the TGI in the test on SK-MEL-2 melanoma was 14.9 µM; with SK-OV-3 ovarian, 32.7 µM; in the test on SNB-19 CNS it was 21.6 µM.
On to `Clc1ccc2nc3n[nH]c(Cl)c3nc2c1`, for which the TGI with 786-0 renal, in the test on MDA-MB-435, in the test with NCI-H460 lung, in the test on OVCAR-4 ovarian, with SF-268 CNS and in the test with SK-MEL-2 melanoma was above 100 µM throughout. Further, the TGI with SK-OV-3 ovarian and in the test on SNB-19 CNS was above 100 µM each time.
As to `Cc1nc2ccccc2c(=O)n1NC(=O)c1ccccc1[N+](=O)[O-]`, the TGI in the test on 786-0 renal, with CCRF-CEM leukemia, in the test on MDA-MB-435, in the test with NCI-H460 lung, with NCI-H522 lung and with OVCAR-4 ovarian was above 100 µM each time. The TGI in the test with SF-268 CNS, in the test on SK-OV-3 ovarian and in the test with SNB-19 CNS was above 100 µM each time.
